Source: patent US20220315908A1, “NOVEL GARDNERELLA ENDOLYSINS AND USES THEREOF” (priority 2019, published 2022)
Values after ≈ are worked out from the molar mass of the structure shown.

System: G. piotii (Gv_17)
Assay: MIC and MBC microbroth dilution
Type: cell-based, Gardnerella piotii
Conditions: for MIC / MBC: Gardnerella piotii; for MIC: 48 h
Procedure: One of the main deficiencies in the treatment of BV is the high rate of recurrence in many women, which leads to repeated administration of antibiotics and concomitant destabilization of the microbiome and other side effects. The minimal inhibitory concentration (MIC) and minimal bactericidal concentration (MBC) on Gardnerella cells of the strains also used for the endolysin activity assays were then measured using the method described in Reference Example 6 and 7. […] Essentially, Gardnerella suspensions at 2.5×10^7 CFU/ml were incubated with the concentration of antibiotics as indicated and incubated for 48 h at 37° C. under anaerobic conditions. […] OD(610) was measured at the beginning and the end of the experiment. At the end of the experiment, 2 ul of each reaction mix was spotted on agar to determine the MBC.
The conditions under which MIC and MBC were measured are more rigorous than the standard.
Bacteria were plated from cryo stock on BD Choc Agar plates (Gardnerella) and incubated at 37° C. for 48 h under anaerobic conditions. Colonies were scraped from the plate, resuspended in Hardy Broth or NYC-III-HS-pH 5.0, and the suspension adjusted to OD (610 or 620 nm as indicated) 0.05. It has to be noted that two Tecan Microplate readers, having respectively a 610 nm or 620 nm filter, have been used interchangeably in the experiments. Although it doesn't make any difference for the experiments, the exact wavelength used is specified in each example. Antibiotics were prepared as 20× stocks for each of the required final concentrations. 95 μl of cell suspension was mixed with 5 μl antibiotics dilution in a 384-well plate. OD (610-620 as indicated) at the start of the reaction was measured, then the plate was incubated at 37° C. for 48 h under anaerobic conditions. After that, the OD (610-620 as indicated) was measured again for MIC determination, where MIC was defined as the lowest concentration of antibiotic where the OD (610-620 as indicated) was not above the level measured at the beginning of the experiment. After measuring OD, 2 μl of each well were spotted on a NYC-III+HS Agar plate. The plates were then incubated for further 48 h at 37° C. under anaerobic conditions. After incubation, cell growth on each spot was evaluated, and the MBC defined as the lowest concentration of antibiotics where no bacteria grew on the plate. The experiments were conducted in triplicate for each condition. In the second round of MIC and MBC experiments with antibiotics the Gardnerella cell suspension was adjusted to the McFarland standard 0.5 (approximately OD (610) 0.07) and then diluted 1:75 according to the CLSI (Clinical and Laboratory Standards Institute) standards. Antibiotics were prepared according to the CLSI standards and 50 μl of cell suspension was mixed in a 96-well plate with 50 μl antibiotics. Otherwise the MIC and MBC was determined as described above. For the MIC and MBC determination of the domain swapped endolysin H2B10 50 μl of Gardnerella cell suspension was mixed in a 96-well plate with 50 μl of H2B10 containing solution, which where serially diluted 1:1. OD610 at the start of the reaction was measured, then the plate was incubated at 37° C. for 48 h under anaerobic conditions. After that, the OD(610) was measured again for MIC determination, where MIC was defined as the lowest concentration of H2B10 where the OD was not or only slightly above the level measured at the beginning of the experiment.

- MIC (first round: […]10^7 CFU/ml, Hardy broth, 384-well, 48 h 37° C. anaerobic): 64 µg/mL (≈ 374 µM)
- MIC (second round: 1×10^5-1×10^6 CFU/ml (CLSI), NYC-III broth, 96-well, 48 h anaerobic): 16 µg/mL (≈ 93.5 µM)
- resistance class of MIC, Metronidazole (first round): R (>=32 μg/mi for Metronidazole)
Compound: Cc1ncc([N+](=O)[O-])n1CCO [Metronidazole]
- MBC (first round: […]10^7 CFU/ml, minimal concentration fully eradicating the suspension): > 128 µg/mL
- MBC (second round: 1×10^5-1×10^6 CFU/ml (CLSI), NYC-III broth, 96-well): 64 µg/mL (≈ 374 µM)
- resistance class given with MBC, Metronidazole (second round): R (>=32 μg/mi for Metronidazole)
